# From PubChem BioAssay (NCI)
#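 Where inhibition never reached the appropriate level, the endpoint shown equals the highest concentration tested. Otherwise, values were interpolated linearly from a five-concentration, 48-hour dose response in 96-well plates. TGI is the concentration that stops growth completely.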
# How the values were obtained:
# Test in all cases: NCI-60 cell line screen, 48 h
# EKVX NSCLC = test system: EKVX NSCLC
# COLO 205 colon = test system: COLO 205 colon
# SF-295 CNS = test system: SF-295 CNS
# OVCAR-5 ovarian = test system: OVCAR-5 ovarian
# SK-MEL-5 melanoma = test system: SK-MEL-5 melanoma
# HS 578T breast = test system: HS 578T breast
# 786-0 renal = test system: 786-0 renal
# MDA-MB-435 = test system: MDA-MB-435
# HCC-2998 colon = test system: HCC-2998 colon
# SK-MEL-28 melanoma = test system: SK-MEL-28 melanoma
# SK-OV-3 ovarian = test system: SK-OV-3 ovarian
# OVCAR-4 ovarian = test system: OVCAR-4 ovarian
# SK-MEL-2 melanoma = test system: SK-MEL-2 melanoma
# M14 melanoma = test system: M14 melanoma
# SF-539 CNS = test system: SF-539 CNS
# MALME-3M melanoma = test system: MALME-3M melanoma
# NCI/ADR-RES ovarian = test system: NCI/ADR-RES ovarian
# UO-31 renal = test system: UO-31 renal
# HL-60(TB) leukemia = test system: HL-60(TB) leukemia
SMILES,TGI (EKVX NSCLC),TGI (COLO 205 colon),TGI (SF-295 CNS),TGI (OVCAR-5 ovarian),TGI (SK-MEL-5 melanoma),TGI (HS 578T breast),TGI (786-0 renal),TGI (MDA-MB-435),TGI (HCC-2998 colon),TGI (SK-MEL-28 melanoma),TGI (SK-OV-3 ovarian),TGI (OVCAR-4 ovarian),TGI (SK-MEL-2 melanoma),TGI (M14 melanoma),TGI (SF-539 CNS),TGI (MALME-3M melanoma),TGI (NCI/ADR-RES ovarian),TGI (UO-31 renal),TGI (HL-60(TB) leukemia)
CCN(CC)c1ccc(C2SCC(=O)N2c2ccc(NC(=O)c3ccc(N4C(=O)CSC4c4ccc(N(CC)CC)cc4)cc3)cc2)cc1 (stereo not given),> 100 µM,> 100 µM,> 100 µM,> 100 µM,> 100 µM,> 100 µM,> 100 µM,> 100 µM,> 100 µM,> 100 µM,> 100 µM,> 100 µM,> 100 µM,> 100 µM,> 100 µM,> 100 µM,> 100 µM,> 100 µM,–
Cc1cc(OCc2nn(CN3CCN(C)CC3)c(=S)n2/N=C/c2ccc(-c3ccc(Cl)cc3Cl)o2)ccc1Cl,> 100 µM,–,> 100 µM,> 100 µM,> 100 µM,> 100 µM,> 100 µM,> 100 µM,31.4 µM,> 100 µM,> 100 µM,70.6 µM,> 100 µM,> 100 µM,> 100 µM,–,> 100 µM,> 100 µM,52.6 µM
COC(=O)C1CC=C(SC(=O)c2ccccc2)N1C(=O)c1ccccc1 (stereo not given),> 100 µM,> 100 µM,> 100 µM,> 100 µM,> 100 µM,> 100 µM,> 100 µM,> 100 µM,> 100 µM,> 100 µM,> 100 µM,> 100 µM,> 100 µM,> 100 µM,–,> 100 µM,> 100 µM,> 100 µM,–
COC(=O)[C@@H](O)[C@]1(C(=O)OC)C2O[C@@H](OC)[C@@H]1CCCCCC[C@H]2O,> 100 µM,> 100 µM,> 100 µM,> 100 µM,> 100 µM,> 100 µM,> 100 µM,> 100 µM,> 100 µM,> 100 µM,> 100 µM,> 100 µM,> 100 µM,> 100 µM,> 100 µM,> 100 µM,> 100 µM,> 100 µM,–
COc1ccc(C2C3CCc4ccccc4C3=NN2S(=O)(=O)c2ccc(Cl)cc2)cc1 (stereo not given),> 100 µM,23.1 µM,50.9 µM,> 100 µM,> 100 µM,> 100 µM,66.6 µM,4.62 µM,–,–,16 µM,> 100 µM,> 100 µM,> 100 µM,39.1 µM,> 100 µM,21.9 µM,> 100 µM,74.9 µM
COC(=O)C12OC(C)(C(CC(=O)OC(C)(C)C)C1=O)C1C(=O)N(c3ccccc3)C(=O)C12 (stereo not given),–,> 100 µM,> 100 µM,> 100 µM,> 100 µM,> 100 µM,> 100 µM,> 100 µM,> 100 µM,> 100 µM,> 100 µM,> 100 µM,> 100 µM,> 100 µM,–,> 100 µM,> 100 µM,> 100 µM,–
COc1cc2c(cc1OC)CC(=O)c1cc(OC)c(OC)cc1/C=C\2,> 12.5 µM,> 12.5 µM,> 12.5 µM,> 12.5 µM,> 12.5 µM,> 12.5 µM,> 12.5 µM,> 12.5 µM,–,> 12.5 µM,> 12.5 µM,> 12.5 µM,> 12.5 µM,> 12.5 µM,> 12.5 µM,> 12.5 µM,> 12.5 µM,> 12.5 µM,7.05 µM
CSc1nc(-c2ccc(C)cc2)c(C#N)c(=O)[nH]1,> 100 µM,> 100 µM,> 100 µM,> 100 µM,> 100 µM,> 100 µM,> 100 µM,> 100 µM,> 100 µM,> 100 µM,> 100 µM,> 100 µM,> 100 µM,> 100 µM,> 100 µM,–,> 100 µM,> 100 µM,> 100 µM
C=C(C(=O)O)C1CCC(CC/C=C(\C)CC/C=C(\C)CCC=C(C)C)CO1 (stereo not given),34.1 µM,27.4 µM,42.8 µM,35.7 µM,24.9 µM,> 100 µM,28.1 µM,53.7 µM,–,29.5 µM,> 100 µM,> 100 µM,60.4 µM,25.5 µM,32.4 µM,63 µM,81.8 µM,30 µM,69.4 µM
CC(C)C1OC2(C)OC(=N)C1(C#N)C(C#N)(C#N)C2C (stereo not given),53.4 µM,27.6 µM,> 100 µM,71.1 µM,26.6 µM,69.4 µM,51.7 µM,> 100 µM,30.7 µM,> 100 µM,> 100 µM,–,67.7 µM,30.5 µM,66 µM,57.8 µM,> 100 µM,> 100 µM,37 µM
